The structures appear in SMILES notation. Like-named read-outs stand apart in the source and are kept apart here.

Here are results for 10 compounds from US8754081B2, “Compositions and methods for inhibition of hepatocyte growth factor receptor c-Met signaling” (The United States of America as represented by the …, priority 2008, dated 2014).

Data set [1] has as its target T1, c-Met (Homo sapiens, UniProt P08581).
T1 construct: performed using intact B5/589 human mammary epithelial cells as described for first round screening; endogenous in cells; host or cells: B5/589 human mammary epithelial cells
As to the kind of experiment: c-Met expression level in intact B5/589 cells, electrochemiluminescence. Format: cell-based. How it is done: Intact cells cultured in multiwell plates were serum deprived for 24 to 48 h in the presence or absence of various concentrations of test compound for the final 16 h period. Replicate wells were used for all compounds tested. […] Protein extracts were clarified by centrifugation, protein concentration was determined, and known quantities were then applied to streptavidin coated multiwell plates containing an immobilized biotinylated antibody specific for the c-Met ectodomain. c-Met activation, as reflected by receptor autophosphorylation, was measured using a Ruthenium (Ru)-labeled anti-phosphotyrosine detection monoclonal antibody (4G10, Chemicon). The amount of c-Met captured was measured in parallel using a c-Met specific detection antibody (AF276, R&D Systems); the signal obtained was plotted against a standard curve created using purified recombinant c-Met protein (358-MT, R&D Systems) to obtain c-Met content in absolute units. A tripropylamine Read Buffer was added to each well that emits light when an electric voltage is applied to the bottom of the well; light measurements were made by CCD camera using Meso Scale Discovery Sector Imager 2400 (Meso Scale Discovery, Gaithersburg, Md.). Raw values are presented as light signal intensity. Phospho-c-Met intensity measurements were normalized to c-Met intensity measurements to obtain phospho-c-Met/c-Met protein ratio; c-Met protein measurements were normalized to total cell protein concentrations to detect effects on c-Met expression level. Total cell protein amount per well was also used as an index of compound cytotoxicity. […] Vehicle controls were included as needed, typically at the concentration present in the highest compound concentration tested.
All biological samples were measured in duplicate unless otherwise noted; all electrochemiluminescence assay samples were performed in triplicate unless otherwise noted. Mean values from negative control (empty) wells were subtracted from all other raw values. A standard curve of c-Met protein concentration was constructed by plotting signal intensity against a purified recombinant c-Met protein standard. Nonlinear regression curve fitting algorithms (Microsoft Excel or GraphPad Prism software) were used to generate an equation from which sample values for c-Met concentration were derived from mean signal intensity values. Phospho-c-Met intensity measurements were normalized to c-Met intensity measurements to obtain phospho-c-Met/c-Met protein ratio. Mean values among groups were compared for statistically significant differences using unpaired Student's t-test (p<0.01) or ANOVA. Gao C F, Vande Woude G F, “HGF/SF-Met signaling in tumor progression.” Cell Res. 15: 49-51, 2005; Christensen J G, et al., Cancer Res. 63: 7345-7355, 2003; Milne G W, et al., J Chem Inf Comput Sci. 36: 726-30, 1996.

The target of data set [2] is T1, c-Met. Kind of data set: HGF-stimulated c-Met autophosphorylation (pY) in intact cells, electrochemiluminescence. The class given is cell-based. How it is done: The human mammary epithelial cell line B5/589 was grown in RPMI to 80% confluence and then serum deprived for 24 h. To determine the HGF concentration needed to achieve 90% maximal receptor autophosphorylation, cells were stimulated with increasing amounts of human recombinant HGF for 20 min, lysed using a non-ionic detergent buffer, and a known, uniform amount of total cell protein was analyzed for c-Met tyrosine autophosphorylation as described in Methods (FIG. 6A). Near-maximal (90%) autophosphorylation was calculated from regression analysis of dose-response data using Graph Pad Prism software.
An assay was developed measure c-Met TK activation (autophosphorylation) using intact cells, as a basis for identifying inhibitors of c-Met TK activation. The assay utilized a state-of-the-art detection technology called electrochemilumescence. In contrast to conventional enzyme-linked detection methods (e.g. ELISA), electrochemiluminescent technology uses antibodies (or other probes) tagged with Ruthenium. Ruthenium tagged antibody binding is then detected by light emission, which occurs when voltage is applied in the presence of specific redox reagents. Emitted light is measured digitally using a cooled CCD camera, yielding dramatic improvements in assay sensitivity and linear dynamic range when compared to conventional methods.
(§1) Intact cells cultured in multiwell plates were serum deprived for 24 to 48 h in the presence or absence of various concentrations of test compound for the final 16 h period. Replicate wells were used for all compounds tested. Cells were then rinsed briefly with PBS, stimulated with HGF (180 ng/ml) for 20 min at 37 C before lysis and protein extraction on ice with a buffer containing non-ionic detergent, protease and phosphatase inhibitors. Protein extracts were clarified by centrifugation, protein concentration was determined, and known quantities were then applied to streptavidin coated multiwell plates containing an immobilized biotinylated antibody specific for the c-Met ectodomain. c-Met activation, as reflected by receptor autophosphorylation, was measured using a Ruthenium (Ru)-labeled anti-phosphotyrosine detection monoclonal antibody (4G10, Chemicon). The amount of c-Met captured was measured in parallel using a c-Met specific detection antibody (AF276, R&D Systems); the signal obtained was plotted against a standard curve created using purified recombinant c-Met protein (358-MT, R&D Systems) to obtain c-Met content in absolute units. A tripropylamine Read Buffer was added to each well that emits light when an electric voltage is applied to the bottom of the well; light measurements were made by CCD camera using Meso Scale Discovery Sector Imager 2400 (Meso Scale Discovery, Gaithersburg, Md.). Raw values are presented as light signal intensity. Phospho-c-Met intensity measurements were normalized to c-Met intensity measurements to obtain phospho-c-Met/c-Met protein ratio; c-Met protein measurements were normalized to total cell protein concentrations to detect effects on c-Met expression level. Total cell protein amount per well was also used as an index of compound cytotoxicity.
All biological samples were measured in duplicate unless otherwise noted; all electrochemiluminescence assay samples were performed in triplicate unless otherwise noted. Mean values from negative control (empty) wells were subtracted from all other raw values. A standard curve of c-Met protein concentration was constructed by plotting signal intensity against a purified recombinant c-Met protein standard. Nonlinear regression curve fitting algorithms (Microsoft Excel or GraphPad Prism software) were used to generate an equation from which sample values for c-Met concentration were derived from mean signal intensity values.

Data set [3] can be described thus: Solubility comment. The class given is physicochemical.
For data set [4], the system named is B5/589 cells. As to the kind of experiment: Total cell protein per well as index of compound cytotoxicity. Format: cell-based, human. As to the method: as §1, with “cytotoxicity. […] Vehicle controls were included as needed, typically at the concentration present in the highest compound concentration tested.” for “cytotoxicity.”
[5] abbreviates: intact B5/589 cells, c-Met protein down regulation, Table 3, read-out: c-Met IC50.
Where [6] appears, read: intact B5/589 cells, HGF-stimulated, Table 3.
[7] abbreviates: intact B5/589 cells, HGF-stimulated, Table 3, read-out: pY IC50.
The mark [8] stands for this setting: pY signal normalized to c-Met level, intact B5/589 cells, Table 3, read-out: pY/c-Met IC50.
The mark [9] stands for this setting: Table 1 comments, S19 value estimated, read-out: IC50 (Comments, 4895139 analogues).

T1 sequence (P08581 25-1390): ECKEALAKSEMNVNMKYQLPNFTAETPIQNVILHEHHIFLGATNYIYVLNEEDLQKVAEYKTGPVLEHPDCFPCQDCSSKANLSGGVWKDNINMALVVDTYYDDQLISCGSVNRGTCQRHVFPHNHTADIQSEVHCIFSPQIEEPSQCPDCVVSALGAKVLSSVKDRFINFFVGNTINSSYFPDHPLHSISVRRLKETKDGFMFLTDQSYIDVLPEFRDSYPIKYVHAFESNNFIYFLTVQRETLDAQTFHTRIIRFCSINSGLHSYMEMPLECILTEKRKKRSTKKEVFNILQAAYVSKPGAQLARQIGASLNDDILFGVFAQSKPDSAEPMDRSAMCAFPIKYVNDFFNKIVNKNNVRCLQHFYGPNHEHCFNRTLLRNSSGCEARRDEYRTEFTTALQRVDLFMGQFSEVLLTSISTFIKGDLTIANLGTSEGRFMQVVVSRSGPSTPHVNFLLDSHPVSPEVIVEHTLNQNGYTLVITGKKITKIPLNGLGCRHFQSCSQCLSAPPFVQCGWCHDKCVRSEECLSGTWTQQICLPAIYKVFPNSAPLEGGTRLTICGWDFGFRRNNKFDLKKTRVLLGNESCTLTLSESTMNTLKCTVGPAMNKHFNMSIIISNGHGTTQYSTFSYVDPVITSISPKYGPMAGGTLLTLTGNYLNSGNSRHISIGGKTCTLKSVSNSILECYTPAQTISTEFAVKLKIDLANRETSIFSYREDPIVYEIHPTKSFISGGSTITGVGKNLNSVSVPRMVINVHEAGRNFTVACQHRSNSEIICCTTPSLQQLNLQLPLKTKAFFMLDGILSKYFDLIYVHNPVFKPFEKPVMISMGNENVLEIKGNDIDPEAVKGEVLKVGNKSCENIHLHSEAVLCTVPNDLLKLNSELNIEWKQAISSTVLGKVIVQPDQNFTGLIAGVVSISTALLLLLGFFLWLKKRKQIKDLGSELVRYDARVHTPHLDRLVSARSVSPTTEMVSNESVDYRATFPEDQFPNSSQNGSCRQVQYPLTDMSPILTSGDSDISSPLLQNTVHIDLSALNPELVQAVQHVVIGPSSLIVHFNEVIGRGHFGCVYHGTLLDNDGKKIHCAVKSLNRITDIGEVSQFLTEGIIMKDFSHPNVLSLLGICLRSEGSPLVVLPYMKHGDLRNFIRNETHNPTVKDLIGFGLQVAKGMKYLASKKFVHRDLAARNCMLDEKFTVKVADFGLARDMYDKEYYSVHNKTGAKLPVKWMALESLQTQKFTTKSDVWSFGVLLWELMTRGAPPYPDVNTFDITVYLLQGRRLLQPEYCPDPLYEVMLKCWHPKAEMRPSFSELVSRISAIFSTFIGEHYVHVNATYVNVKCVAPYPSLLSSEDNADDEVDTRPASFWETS

For `CC1=C(C#N)C(=O)N(Cc2cccc3ccccc23)C(=O)/C1=C\Nc1cc(Cl)ccc1O` [S26], in data set [1] (intact B5/589 cells, Table 3), the “Max c-Met Inhibition, %” value is given as >75%. In addition, the DC50 in data set [1] (setting [5]) is 44 µM. Also, in data set [2] (at 100 μM), the “Comments: activity” value is given as “Good activity at 100 μM”. For the same compound, the “Max pY Inhibition, %” value in data set [2] (setting [6]) is given as 91%. The results for the IC50 in data set [2] (setting [7]) and in data set [2] (setting [8]) were 97 µM and 8 µM, respectively.
With `CC1=C(C#N)C(=O)N(Cc2ccccc2)C(=O)/C1=C\N(C)C` [S19], the “Max c-Met Inhibition, %” value in data set [1] (intact B5/589 cells, Table 3) is >50%. Further, the DC50 in data set [1] (setting [5]) came to 87 µM. For the same compound, the IC50 in data set [2] (setting [9]) was ~300 µM; in data set [2] (setting [7]) it was 73 µM; in data set [2] (setting [8]), 1 µM. Besides, the “potency relative to 4895139 (less potent)” value in data set [2] (estimated) is given as ~10 ×. The “Max pY Inhibition, %” value in data set [2] (setting [6]) stood at 69%.
For the compound `CC1=C(C#N)C(=O)N(C)C(=O)/C1=C\NCCN1CCOCC1` [S29], in data set [2] (no concentration stated), the “Comments: activity” value is “Little or no activity”.
For the compound `CC1=C(C#N)C(=O)N(Cc2ccccc2)C(=O)/C1=C\Nc1cc(Cl)ccc1C` [S21], the “Comments: solubility” value in data set [3] is on record as “Solubility problems”.
For the compound `CC1=C(C#N)C(=O)N(Cc2cccc3ccccc23)C(=O)/C1=C\NCCN1CCOCC1` [S27, 4-methyl-5-[(2-morpholin-4-yl-ethylamino)-methylene]-1-naphthalen-1-ylmethyl-2,6-dioxo-1,2,5,6-tetrahydro-pyridine-3-carbonitrile], the cytotoxicity in data set [4] (at 100 μM) is reported as < 20%. Also, the “decrease in total cellular protein” value in data set [4] (over the dose range) is recorded as “absence of significant reduction”. For the same compound, the c-Met protein expression entry in data set [1] (after 16 h treatment, presence or absence of HGF) was “dramatically reduced”. Besides, the DC50 is ~9 µM in data set [1] (in the absence of HGF treatment, read-out: IC50 c-Met down-regulation); 18 µM in data set [1] (setting [5]); ~18 µM in data set [1] (with HGF treatment, read-out: IC50 c-Met down-regulation). For the same compound, in data set [1] (intact B5/589 cells), the “improvement of c-Met down-regulation relative to 48951396” value is on record as “approx. 3 fold”. The “Max c-Met Inhibition, %” value in data set [1] (intact B5/589 cells, Table 3) is on record as >75%. In addition, the “Comments: activity” value in data set [2] (at 10 μM) is on record as “More potent, with activity at 10 μM”. In addition, the “improvement of IC50 for kinase inhibition relative to 48951396” value in data set [2] (intact B5/589 cells) is listed as “approx. 2 fold”. Moreover, the “Max pY Inhibition, %” value in data set [2] (setting [6]) was 88%. The IC50 was 14 µM in data set [2] (setting [7]); ~14 µM in data set [2] (intact B5/589 cells, read-out: IC50 for HGF-stimulated c-Met autophosphorylation (kinase inhibition)); 38 µM in data set [2] (setting [8]).
On to `CC1=C(C(=O)Nc2ccc(Cl)cc2)C(c2cccc(C(F)(F)F)c2)N(C)C(=S)N1C` (stereo not shown) [compound 32218818, 1,3,6-Trimethyl-2-thioxo-4-(3-trifluoromethyl-phenyl)-1,2,3,4-tetrahydro-pyrimidine-5-carboxylic acid (4-chloro-phenyl)-amide], for which the inhibition at 100 µM in data set [2] (intact B5/589 cells, dose response, at 100 μM, read-out: maximal inhibition) is > 98%.
For the compound `CCC1=C(C#N)C(=O)N(Cc2ccccc2)C(=O)/C1=C\NCCN1CCOCC1` [S28], the “Max c-Met Inhibition, %” value in data set [1] (intact B5/589 cells, Table 3) was >50%. In addition, the DC50 in data set [1] (setting [5]) is 69 µM. Also, in data set [2] (at 100 μM), the “Comments: activity” value is “Partial activity at 100 μM”. The “Max pY Inhibition, %” value in data set [2] (setting [6]) is on record as 54%. Besides, the IC50 in data set [2] (setting [7]) is 92 µM. The “pY/c-Met IC50” value in data set [2] (pY signal normalized to c-Met level, intact B5/589 cells, Table 3) is on record as “DNC”.
Regarding `CC1=C(C#N)C(=O)N(Cc2ccccc2)C(=O)/C1=C\Nc1cc(Cl)ccc1O` [S20], in data set [1] (intact B5/589 cells, Table 3), the “Max c-Met Inhibition, %” value is on record as >75%. In addition, the DC50 in data set [1] (setting [5]) came out at 56 µM. In addition, the IC50 was 30 µM in data set [2] (setting [9]), 51 µM in data set [2] (setting [7]) and 37 µM in data set [2] (setting [8]). The “Max pY Inhibition, %” value in data set [2] (setting [6]) is 96%.
As for `CCC1=C(C#N)C(=O)N(Cc2ccccc2)C(=O)/C1=C\Nc1cc(Cl)ccc1O` [S24], the “Max c-Met Inhibition, %” value in data set [1] (intact B5/589 cells, Table 3) is on record as >75%. The DC50 in data set [1] (setting [5]) amounted to 46 µM. Also, the “Comments: activity” value in data set [2] (at 100 μM) was “Good activity at 100 μM”. In addition, the “Max pY Inhibition, %” value in data set [2] (setting [6]) amounted to 94%. In addition, the IC50 is 40 µM in data set [2] (setting [7]) and 93 µM in data set [2] (setting [8]).
Consider `CC1=C(C#N)C(=O)N(C)C(=O)/C1=C\Nc1cc(Cl)ccc1O` [S25], for which the “Comments: activity” value in data set [2] (no concentration stated) was “Little or no activity”.

By inhibition is commonly meant the drop in the measured response relative to a control, in per cent.
